Experimental data as given in patent US8309554B2 (priority 2008, dated 2012).
Like-named read-outs stand apart in the source and are kept apart here.

What was measured:
in vivo = conditions: mouse, ip
H460 = assay: cells; format: cell-based; conditions: for IC50: Homo sapiens, NCI-H460, 2 h
[1] = system: H460 non small cell lung xenograft; conditions: mouse, in vivo
[2] = system: HT 1080 sarcoma xenograft; conditions: mouse, in vivo, ip, 50 mg/kg
HT29 = assay: cells; format: cell-based; conditions: for IC50: Homo sapiens, HT-29, 2 h

Row | Compound | MTD (in vivo) [mg/kg] | H460 HCR: Air/N2 (H460) | IC50 (H460; read-out: 2 hr Air H460 IC50) [µM] | IC50 (H460; read-out: 2 hr N2 H460 IC50) [µM] | tumor growth delay to 500 mm^3 [1] [days] | tumor growth delay to 500 mm^3 [2] [days] | HT29 HCR: Air/N2 (HT29) | IC50 (HT29; read-out: 2 hr Air HT29 IC50) [µM] | IC50 (HT29; read-out: 2 hr N2 HT29 IC50) [µM]
1 | O=[N+]([O-])c1sccc1C(Cc1ccc(OCCO)nc1)S(=O)(=O)Oc1ccc(N(CCCl)CCCl)cc1 (stereo not shown) [TH-1315, 3-(4-(N,N-bis-(2-Chloroethyl)amino)phenoxysulfonyl-(2-(2-hydroxyethoxy)pyridin-5-yl-methyl))methyl-2-nitrothiophene] | 50 | 142 | 99.5 | 0.7 | 19 | 6 | >23 | > 300 | 13
2 | O=[N+]([O-])c1sccc1C(Cc1ccc(N2CCOCC2)nc1)S(=O)(=O)Oc1ccc(N(CCCl)CCCl)cc1 (stereo not shown) [TH-1426] | – | 950 | 190 | 0.2 | – | – | – | > 300 | > 300
3 | CN(C)S(=O)(=O)CCC(c1ccsc1[N+](=O)[O-])S(=O)(=O)Oc1ccc(N(CCCl)CCCl)cc1 (stereo not shown) [TH-1360] | – | ~70 | ~300 | 4.3 | – | – | – | > 1000 | > 1000
4 | O=[N+]([O-])c1sccc1C(COC1CCCCC1)S(=O)(=O)Oc1ccc(N(CCCl)CCCl)cc1 (stereo not shown) [TH-1521] | – | 180 | 234 | 1.3 | – | – | >3.2 | > 300 | 93
5 | O=[N+]([O-])c1sccc1C(CCS(=O)(=O)c1ccncc1)S(=O)(=O)Oc1ccc(N(CCCl)CCCl)cc1 (stereo not shown) [TH-1363] | – | 113 | 68 | 0.6 | – | – | – | > 1000 | > 1000
6 | O=[N+]([O-])c1sccc1CS(=O)(=O)Oc1ccc(N(CCCl)CCCl)c(F)c1 [TH-1192, 3-((3-Fluoro-4-(N,N-bis-(2-chloroethyl)amino)phenoxy)sulfonyl)methyl-2-nitrothiophene] | – | 39 | 59.2 | 1.5 | – | – | 20 | 162 | 8
7 | O=[N+]([O-])c1sccc1C(CCS(=O)(=O)Oc1ccccc1)S(=O)(=O)Oc1ccc(N(CCCl)CCCl)cc1 (stereo not shown) [TH-1292, 3-(4-(N,N-bis-(2-Chloroethyl)amino)phenoxysulfonyl-(2-phenoxysulfonylethyl))methyl-2-nitrothiophene] | – | 127.7 | 195 | 1.5 | – | – | 158 | 760 | 4.8
8 | O=[N+]([O-])c1sccc1C(CCS(=O)(=O)CCO)S(=O)(=O)Oc1ccc(N(CCCl)CCCl)cc1 (stereo not shown) [TH-1388] | – | 35 | 49 | 1.4 | – | – | 30 | 420 | 14
9 | C[C@H](O)C(=O)Nc1ccc(CC(c2ccsc2[N+](=O)[O-])S(=O)(=O)Oc2ccc(N(CCCl)CCCl)cc2)cn1 (stereo partly shown) [TH-1465, 3-(4-(N,N-bis-(2-Chloroethyl)amino)phenoxysulfonyl-(2-(lactic acylamino)pyridine-5-yl-methyl))methyl-2-nitrothiophene] | – | 50 | 40 | 0.8 | – | – | 30 | 210 | 7
10 | O=[N+]([O-])c1sccc1C(Cc1nccs1)S(=O)(=O)Oc1ccc(N(CCCl)CCCl)cc1 (stereo not shown) [TH-1419] | – | 45 | 36 | 0.8 | – | – | – | > 300 | > 300
11 | CN(C)c1ccc(CC(c2ccsc2[N+](=O)[O-])S(=O)(=O)Oc2ccc(N(CCCl)CCCl)cc2)cn1 (stereo not shown) [TH-1316] | – | 179 | 179 | 1 | – | – | – | > 300 | > 300
